Assay results from ChEMBL document CHEMBL1201862, “PubChem BioAssay data set” (2004).
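The compound was tested at five concentrations on cells cultured in 96-well plates, with a 48-hour exposure period. GI50 = concentration required for 50% inhibition of growth.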 The source made the active and inactive calls. No stated cut-off is given here; in the data, active = GI50 up to about 1.1 µM and inactive = higher.

Legend:
Assay in all cases: NCI anticancer screen, dose series, 48 h
HOP-92 = tested on: HOP-92
BT-549 = tested on: BT-549
OVCAR-5 = tested on: OVCAR-5
UACC-257 = tested on: UACC-257
OVCAR-3 = tested on: OVCAR-3
MDA-MB-435 = tested on: MDA-MB-435
RPMI-8226 = tested on: RPMI-8226
NCI-H460 = tested on: NCI-H460
HCC 2998 = tested on: HCC 2998
Malme-3M = tested on: Malme-3M
SW-620 = tested on: SW-620
UO-31 = tested on: UO-31
OVCAR-8 = tested on: OVCAR-8
SNB-19 = tested on: SNB-19
EKVX = tested on: EKVX
M14 = tested on: M14
SF-268 = tested on: SF-268
A498 = tested on: A498
SN12C = tested on: SN12C
CAKI-1 = tested on: CAKI-1

Structure (SMILES)	GI50 (HOP-92)	GI50 (BT-549)	GI50 (OVCAR-5)	GI50 (UACC-257)	GI50 (OVCAR-3)	GI50 (MDA-MB-435)	GI50 (RPMI-8226)	GI50 (NCI-H460)	GI50 (HCC 2998)	GI50 (Malme-3M)	GI50 (SW-620)	GI50 (UO-31)	GI50 (OVCAR-8)	GI50 (SNB-19)	GI50 (EKVX)	GI50 (M14)	GI50 (SF-268)	GI50 (A498)	GI50 (SN12C)	GI50 (CAKI-1)
Oc1ccccc1C(c1cc2c(cc1O)OCO2)N1CCOCC1 (stereo not given)	17.3 µM (inactive)	16.6 µM (inactive)	25 µM (inactive)	19.2 µM (inactive)	17.5 µM (inactive)	18.2 µM (inactive)	12.8 µM (inactive)	27.4 µM (inactive)	18.7 µM (inactive)	17.8 µM (inactive)	23 µM (inactive)	15.8 µM (inactive)	9.29 µM (inactive)	19.1 µM (inactive)	50.9 µM (inactive)	17.9 µM (inactive)	18.5 µM (inactive)	22.9 µM (inactive)	19.1 µM (inactive)	19.7 µM (inactive)
CC1=CC2C3(C)C(C)(C(C)=CP3(=O)c3c(C(C)C)cc(C(C)C)cc3C(C)C)C1P2(=O)c1c(C(C)C)cc(C(C)C)cc1C(C)C (stereo not given)	1.64 µM (inactive)	1.77 µM (inactive)	2.06 µM (inactive)	1.7 µM (inactive)	1.75 µM (inactive)	1.85 µM (inactive)	0.916 µM (active)	1.47 µM (inactive)	1.9 µM (inactive)	2.17 µM (inactive)	3.08 µM (inactive)	1.87 µM (inactive)	3.37 µM (inactive)	3.84 µM (inactive)	2.92 µM (inactive)	1.92 µM (inactive)	3.3 µM (inactive)	2.16 µM (inactive)	2.58 µM (inactive)	3.01 µM (inactive)
O=C1C=CC(=O)c2ccc(=O)ccc21	1.89 µM (inactive)	17.7 µM (inactive)	19.9 µM (inactive)	17.1 µM (inactive)	7.85 µM (inactive)	21.5 µM (inactive)	3.15 µM (inactive)	21.2 µM (inactive)	17.2 µM (inactive)	18.1 µM (inactive)	3.74 µM (inactive)	15 µM (inactive)	17.5 µM (inactive)	16.9 µM (inactive)	22.4 µM (inactive)	14.8 µM (inactive)	17.1 µM (inactive)	16.9 µM (inactive)	17.3 µM (inactive)	9.25 µM (inactive)
COCOC1C=CCCCC2=CC(C)=C(CC1)O2 (stereo not given)	> 100 µM (inactive)	> 100 µM (inactive)	> 100 µM (inactive)	> 100 µM (inactive)	68.4 µM (inactive)	> 100 µM (inactive)	> 100 µM (inactive)	> 100 µM (inactive)	> 100 µM (inactive)	> 100 µM (inactive)	> 100 µM (inactive)	> 100 µM (inactive)	> 100 µM (inactive)	> 100 µM (inactive)	> 100 µM (inactive)	> 100 µM (inactive)	> 100 µM (inactive)	> 100 µM (inactive)	> 100 µM (inactive)	> 100 µM (inactive)
O=C1CC(c2n[nH]c3ccccc23)C(=O)N1c1ccccc1 (stereo not given)	> 78.2 µM (inactive)	> 100 µM (inactive)	> 100 µM (inactive)	> 100 µM (inactive)	> 100 µM (inactive)	> 100 µM (inactive)	82.8 µM (inactive)	> 100 µM (inactive)	> 100 µM (inactive)	> 100 µM (inactive)	> 84.1 µM (inactive)	> 100 µM (inactive)	> 100 µM (inactive)	> 100 µM (inactive)	> 100 µM (inactive)	> 100 µM (inactive)	> 100 µM (inactive)	> 100 µM (inactive)	> 100 µM (inactive)	> 100 µM (inactive)
